Values belong to the compound of their own block, whether it stands above or below them.
Key:
[1] = s.c.; cited from earlier work
[2] = DSC / modulated DSC thermal events (Tg, Low T1, Low T2, recrystallization, melt); assay type: physicochemical
Method: For comparative purposes, a 100% spray-dried zolmitriptan powder was prepared and analyzed via XRPD and DSC to allow for a comparison to the formulations from Example 2 that were placed on stability and to facilitate an interpretation of the resultant thermal data. Initially, a lot of amorphous 100% zolmitriptan was produced via a Buchi 290 Spray-Drying System (spray drying parameters: solids concentration=2 g/L, inlet temperature=90° C., outlet temperature=45° C., drying gas flowrate=20 kg/hr, atomization gas flowrate=10 g/min, aqueous flowrate=4 ml/Min, organic phase flowrate=6 ml/min, spray dryer pressure=−50 mbar) and analyzed via modulated DSC (TA Instruments DSC Q2000 Tzero System, MDSC Parameters: hermetically sealed double lid pan configuration, equilibrate at 0° C. for 5 minutes, ramp up to maximum of 160° C. at 2.0° C./min, modulate+/−1.00° C. every 60 seconds) to determine its glass transition temperature.

Structure (SMILES): CNS(=O)(=O)Cc1ccc2[nH]cc(CCN(C)C)c2c1 [sumatriptan]
reported half-lives [1]: ~2 h

Structure (SMILES): CN(C)CCc1c[nH]c2ccc(C[C@H]3COC(=O)N3)cc12 [Zolmitriptan]
reported half-lives [1]: ~2 h

glass transition temperature (Tg) ([2]; modulated DSC, amorphous 100% zolmitriptan, Buchi 290): approximately 33 °C
Structure (SMILES): CN(C)CCc1c[nH]c2ccc(C[C@H]3COC(=O)N3)cc12 [pure amorphous zolmitriptan, Zolmitriptan]

Tm (° C.) ([2]; 100% zolmitriptan study, t = 0): 136.0 °C | ΔH ([2]; 100% zolmitriptan study, t = 0): 135.3 J/g | Tm (° C.) ([2]; 100% zolmitriptan study, t = 0, listed as Zolmitriptan raw material): approximately 136 °C
Structure (SMILES): CN(C)CCc1c[nH]c2ccc(C[C@H]3COC(=O)N3)cc12 [Raw material, Zolmitriptan]

Source: US20160317503A1, “ZOLMITRIPTAN POWDERS FOR PULMONARY DELIVERY” (Civitas Therapeutics, Inc., priority 2015, published 2016)
